The nature of this series: resistivity in solution, crystalline versus amorphous form. Format: physicochemical. Conditions: compared with the amorphous form at an equivalent concentration in solution.

Turning to `CCNC(=O)[C@H]1O[C@@H](n2cnc3c(NCC(c4ccccc4)c4ccccc4)nc(C(=O)NCCNC(=O)NC4CCN(c5ccccn5)CC4)nc32)[C@H](O)[C@@H]1O` [crystalline form, 6-[(2,2-diphenylethyl)amino]-9-(N-ethyl-β-D-ribofuranosyluronamide)-N-(2-{N′-[1-(2-pyridyl)-4-piperidyl]ureido}ethyl)-9H-purine-2-carboxamide], the resistivity in solution result is “higher resistivity than the amorphous form”.

For the origin of these results see patent publication US20030144243A1, “Combination of a crystalline drug form and atiotropium salt” (priority 2001, published 2003).
